US7279497B2, “Benzopyran derivatives substituted with secondary amines including imidazole, their preparation and pharmaceutical compositions containing them” (Korea Research Institute of Chemical Technology, priority 2002, dated 2007)
Marks after values point to notes of the source that are not given here. Blank lines part the entries; values can stand above or below the compound they belong to.

Assays:
[1] = tested on: HUVECs (Human umbilical vein endothelial cells); assay: Inhibitory effects on HUVEC tube formation; assay type: cell-based; settings: for inhibitory effect on HUVEC tube formation: 50 uM;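 on tube formation: from minus no inhibition up to plus-plus-plus complete inhibition versus vehicle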
Method: The Inhibitory effects of the compounds of the formula 1 on angiogenesis were meassured by the vascular tube formation assay of HUVECs (Human umbilical vein endothelial cells), which is one of the major angiogenic steps.
HUVECs were isolated from human umbilical vein, and cultured. HUVECs within passage 5 from confluent cultures were detached, and plated onto a layer of a bFGF (basic fibroblast growth factor)-reduced and polymerized Matrigel. Matrigel cultures were incubated with or without the compounds of formula 1, and the changes of cell morphology were captured through a phase contrast microscope and photographed.

A549 implanted mice = assay: Survival % in A549 implanted mice; assay type: in vivo; settings: for Survival %: 50 mg/Kg
Source text: (§1) Nude mice (BALB/c nu/nu, male) were purchased from Charls River Japan, Inc., and housed and treated under SPF (Special Pathogen Free) facilities according to the regulation of NIH (national institutes of health). A549 cells isolated from human non small cell lung cancer (NSCLC) were purchased from ATCC ([…], USA), and maintained as an exponentially growing monolayer in Korea Research Institute of Chemical Technology. Effects of the compounds of present invention on implanted tumor growth were measured by the comparison of tumor sizes, in addition, the changes of body weights and survival % of nude mice were observed.
Survival percents were represented using following mathematical formula 2, where N0 is the number of mice at the first day of administration, and Nn is the number of mice at n days after administration. Survival %=Nn/N0×100 [Mathematical formula 2]

SPF SD rats = settings: rat, in vivo, po;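 further: Six-week-old animals, two per group, followed across an observation period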
[2] = Changes of body weight in nude mice implanted A549; assay type: in vivo, nude mice (BALB/c nu/nu); settings: 50 mg/Kg
Source text: as §1
The effects of the compounds of the formula 1 on changes of body weights were determined. Body weights of nude mice were measured using AND balance at 5 day intervals starting from the date of administration of compounds, and represented as a mean value of treated group […], respectively.

A549 NSCLC = assay: Inhibition on A549 NSCLC growth in nude mice xenografts; assay type: in vivo, nude mice (BALB/c nu/nu); settings: for Inhibition (%) of tumor volume: 50 mg/Kg; for Tumor volume: 50 mg/Kg i.p. once daily day 1 to day 20
Method: Human tumor xenograft experiments were performed to evaluate whether the compounds of the formula 1 inhibit growth of human tumors implanted in nude mice.
as §1
Nude mice had been adjusted to the laboratory for 2-3 weeks after purchase, and all procedures were performed on male mice of 8 weeks of age, within a weight range of 18-20 g.
A549 tumor xenografts were established in the right flank of mice by subcutaneous injection of cells in 3×3×3 mm^3 size of culture. 24 hours after cell implantation, the administration of the compounds was started and which day is defined as day 1. Nude mice were injected intraperitoneally with the compound of example 23 (50 mg/kg) or vehicle (PBS containing 0.5% tween 80) once daily from day 1 to day 20. Tumor volume (V) was assessed by caliper measurement using the mathematical formula 1, where a was the longest diameter across the tumor and b was the corresponding perpendicular short diameter. Volume (mm^3)=a×b^2/2 [Mathematical Formula 1]
Inhibition (%) was calculated as (1−(VT)n/−(VC)n)×100, where (VT)n and (VC)n were the mean tumor volume of treated and control group at n days after administration of the compound. Each group consisted of 8 mice, and statistical significance was represented as student-T test (* p<0.05).

isolated rat aorta = assay: Vasorelaxation effects on isolated blood vessels (methoxamine induced vasoconstriction); settings: rat aorta constricted with methoxamine (3 μM)
Method: The following experiment was conducted to examine whether the compounds of the formula 1 have vasorelaxation effects.
Male Sprague-Dawly rats (350-450 g, obtained from the Experimental Animal Team of the Korea Research Institute of Chemical Technology) were knocked unconscious by hitting the occipital region, sacrificed by cervical dislocation, and underwent thoracotomy. After being quickly removed, the thoracic aorta was deprived of the adipose tissue and cut into aortic rings of 3 mm width. The aorta was lightly rubbed with a modified Krebs Henseleit buffer (Physiological Salt Solution, PSS) soaked cotton club to remove the inner epithelial layer therefrom. While being suspended in an organ bath containing a physiological buffer, the vascular tissue was allowed to equilibrate under a resting tension of 2 g and then, stand for 1 hour at 37° C. for stabilization with a supply of a carbogen consisting of 95% O2-5% CO2.
Thereafter, the vascular tissue was constricted with 10^−5 M phenylephrine and washed several times with PSS and this procedure was repeated again to ensure the stable reactivity of vascular smooth muscle to repetitive constriction/dilatation.
In addition, 3×10^−6 M methoxamine was used to induce an intensive constriction in the vascular smooth muscle. When the vasoconstriction induced by the methoxamine reached and maintained a maximum, test compounds and controls were cumulatively added to the organ baths in concentrations of 1, 3, 10 and 30 μM so as to induce vasodilatation. Cromakalim, BMS-180448, and BMS-191095 were used as the controls.
Following the addition of test compounds, the change in the maximal constriction induced by methoxamine was calculated to plot a concentration-relaxation response curve. Through a linear regression analysis, IC50, the drug concentration at which the vascular tissue is 50% dilated, was obtained for each compound.

Structure (SMILES): COC(OC)[C@]1(C)Oc2ccc(N)cc2[C@H](N(Cc2ncc[nH]2)c2ccc(Cl)cc2)[C@H]1O [Example 23, (2R,3R,4S)-6-amino-3,4-dihydro-2-dimethoxymethyl-3-hydroxy-2-methyl-4-[N-(4-chlorophenyl)-N-(1H-imidazol-2-ylmethyl)amino]-2H-1-benzopyran]
inhibitory effect on HUVEC tube formation [1]: didn't show any tube like structures
Tube formation ([1]; 50 μM): +++
Survival % (A549 implanted mice; 1 day): 100%
Survival % (A549 implanted mice; 5 days): 100%
Survival % (A549 implanted mice; 15 days): 100%
Survival % (A549 implanted mice; 20 days): 100%
survival rate (A549 implanted mice; table 6): 100%
clinical symptoms, body weight and mortality (SPF SD rats): no significant changes
retardation or loss of body weight gain [2]: not observed
Body weight ([2]; 1 day): 22.30 g
Body weight ([2]; 14 days): 25.42 g
Body weight ([2]; 25 days): 26.17 g
Body weight ([2]; 35 days): 27.10 g
Inhibition (%) of tumor volume (A549 NSCLC; 25 days): (40%)
Tumor volume (A549 NSCLC; 25 days): 92.2 mm^3
Inhibition (%) of tumor volume (A549 NSCLC; 35 days): (39%)
Tumor volume (A549 NSCLC; 35 days): 186.8 mm^3
Inhibition (%) of tumor volume (A549 NSCLC; 45 days): (50%)
Tumor volume (A549 NSCLC; 45 days): 244.3* mm^3
Inhibition (%) of tumor volume (A549 NSCLC; 65 days): (52%)
Tumor volume (A549 NSCLC; 65 days): 494.8* mm^3
Inhibition of A549 NSCLC growth (A549 NSCLC; from 45 days to 61 days after implantation): 50-52%

Structure (SMILES): COC(OC)[C@]1(C)Oc2ccc([N+](=O)[O-])cc2[C@@H](N(Cc2ncc[nH]2)c2ccc(Cl)cc2)[C@@H]1O [Example 4, (2R,3S,4R)-3,4-dihydro-2-dimethoxymethyl-3-hydroxy-2-methyl-6-nitro-4-[N-(4-chlorophenyl)-N-(1H-imidazol-2-ylmethyl)amino]-2H-1-benzopyran]
Tube formation ([1]; 50 μM): +
clinical symptoms, body weight and mortality (SPF SD rats): no significant changes

Structure (SMILES): COC(OC)[C@]1(C)Oc2ccc(N)cc2[C@H](N(Cc2ncc[nH]2)c2ccc(OC(F)(F)F)cc2)[C@H]1O [Example 26, (2R,3R,4S)-6-amino-3,4-dihydro-2-dimethoxymethyl-3-hydroxy-2-methyl-4-[N-(4-trifluoromethoxyphenyl)-N-(1H-imidazol-2-ylmethyl)amino]-2H-1-benzopyran]
Tube formation ([1]; 50 μM): +
clinical symptoms, body weight and mortality (SPF SD rats): no significant changes

Structure (SMILES): COC(OC)[C@@]1(C)Oc2ccc([N+](=O)[O-])cc2[C@@H](N(Cc2ncc[nH]2)c2ccccc2C(C)C)[C@@H]1O [Example 10, (2S,3S,4R)-3,4-dihydro-2-dimethoxymethyl-3-hydroxy-2-methyl-6-nitro-4-[N-(2-isopropylphenyl)-N-(1H-imidazol-2-ylmethyl)amino]-2H-1-benzopyran]
inhibitory effect on HUVEC tube formation [1]: strongly inhibited
Tube formation ([1]; 50 μM): ++
clinical symptoms, body weight and mortality (SPF SD rats): no significant changes

Structure (SMILES): COc1ccc(N(Cc2ncc[nH]2)[C@H]2c3cc(N)ccc3O[C@@](C)(C(OC)OC)[C@@H]2O)cc1 [Example 28, (2R,3R,4S)-6-amino-3,4-dihydro-2-dimethoxymethyl-3-hydroxy-2-methyl-4-[N-(4-methoxyphenyl)-N-(1H-imidazol-2-ylmethyl)amino]-2H-1-benzopyran]
Tube formation ([1]; 50 μM): +
clinical symptoms, body weight and mortality (SPF SD rats): no significant changes

Structure (SMILES): COC(OC)[C@]1(C)Oc2ccc([N+](=O)[O-])cc2[C@H](N(Cc2ncc[nH]2)c2cccc(C)c2C)[C@H]1O [Example 12, (2R,3R,4S)-3,4-dihydro-2-dimethoxymethyl-3-hydroxy-2-methyl-6-nitro-4-[N-(2,3-dimethylphenyl)-N-(1H-imidazol-2-ylmethyl)amino]-2H-1-benzopyran]
Tube formation ([1]; 50 μM): +
clinical symptoms, body weight and mortality (SPF SD rats): no significant changes

Structure (SMILES): COC(OC)[C@@]1(C)Oc2ccc(C#N)cc2[C@@H](N(Cc2ncc[nH]2)c2ccc(Cl)cc2)[C@@H]1O [Example 22, (2S,3S,4R)-6-cyano-3,4-dihydro-2-dimethoxymethyl-3-hydroxy-2-methyl-4-[N-(4-chlorophenyl)-N-(1H-imidazol-2-ylmethyl)amino]-2H-1-benzopyran]
Tube formation ([1]; 10 μM): +
Tube formation ([1]; 100 μM): ++
clinical symptoms, body weight and mortality (SPF SD rats): no significant changes

Structure (SMILES): CC1(C)Oc2ccc(C#N)cc2C(N(Cc2ncc[nH]2)c2ccc(Cl)cc2)[C@H]1O (stereo partly shown) [BMS-191095]
IC50 (isolated rat aorta): 2140 nM

Structure (SMILES): COC(OC)[C@]1(C)Oc2ccc(N)cc2[C@H](N(Cc2ncc[nH]2)c2ccc(Br)cc2)[C@H]1O [Example 29, (2R,3R,4S)-6-amino-3,4-dihydro-2-dimethoxymethyl-3-hydroxy-2-methyl-4-[N-(4-bromophenyl)-N-(1H-imidazol-2-ylmethyl)amino]-2H-1-benzopyran]
Tube formation ([1]; 50 μM): +
clinical symptoms, body weight and mortality (SPF SD rats): no significant changes

IC50 (isolated rat aorta): 67 nM
Structure (SMILES): CC1(C)Oc2ccc(C#N)cc2C(N2CCCC2=O)C1O (stereo not shown) [Cromakalim]
